Measured values as given in article PMC5892408, “Novel dual-function near-infrared II fluorescence and PET probe for tumor delineation and image-guided surgery” (Chemical Science, 2018).

Test: Photostability under continuous 808 nm laser illumination
Assay type: physicochemical
Conditions: same conditions as CHS2; 808 nm laser illumination (82 mW cm^-2) for 1 h
Description: Fig. 2 (a) Fluorescence emission of CHS2 under 808 nm excitation; (b) photostability of CHS2 in water, PBS and serum under 808 nm laser illumination (105 mW cm^–2) for 1 h; (c) photostability of ICG vs.CHS2 under 808 nm laser illumination (82 mW cm^–2) for 1 h; (d) cellular toxicity of different concentrations of CHS2 in U87MG cell lines.

photostability (fluorescence decay): ~50%
Structure (SMILES): CC1(C)C(/C=C/C=C/C=C/C=C2\N(CCCCS(=O)(=O)O)c3ccc4ccccc4c3C2(C)C)=[N+](CCCCS(=O)(=O)[O-])c2ccc3ccccc3c21 [ICG, indocyanine green]
